Laboratory results taken from PMC10778980, “Profiling Novel Quinuclidine-Based Derivatives as Potential Anticholinesterase Drugs: Enzyme Inhibition and Effects on Cell Viability” (International Journal of Molecular Sciences, 2023).
Entries after “also recorded” stand apart in the source; their conditions may differ. Read-outs that look alike come from different tables or passages of the source.

Key:
human BChE = biological target: T1, human BChE (Homo sapiens, UniProt P06276); assay: biochemical; conditions: Ki ± standard error; 0.1, 0.2, 0.35 and 0.5 mM substrate ATCh; 25 °C, pH 7.4; read-out: Ki BChE
T1 construct: Plasma was removed and used as a source of BChE; from tissue; host or cells: human blood plasma from a healthy volunteer
Source text: (§1) Cholinesterase substrate acetylthiocholine (ATCh) and the thiol reagent 5,5′-dithiobis(2-nitrobenzoic acid) (DTNB) for the enzyme activity measurement were purchased from Sigma-Aldrich (St. Louis, MO, USA). The sources of human AChE and BChE were native erythrocytes and plasma, respectively, obtained from the blood of a healthy volunteer and in accordance with the approval of the Ethics Committee of the Institute for Medical Research and Occupational Health (approval number: 100-21/23-6). Erythrocytes and plasma were isolated from the whole blood and prepared according to a previously published procedure. Namely, venous blood was collected into a heparinized tube and centrifuged (at 4 °C, 20 min on 2500 rpm, Eppendorf centrifuge 5702R) to separate plasma from the erythrocytes. Plasma was removed and used as a source of BChE, while erythrocytes were washed twice with the 0.1 M sodium phosphate buffer, pH 7.4, in a volume corresponding to the initial volume of the whole blood. Both plasma and erythrocytes were frozen at −20 °C until use. Quinuclidine compounds were dissolved in dH2O as 10 or 100 mM; exceptionally, 3-hydroxyimino compounds with longer chains (C12−C16) were dissolved in DMSO as 100 mM solutions. Stock solutions were kept at 4 °C until use. Further dilutions were made in distilled water.
(§2) The reversible inhibition experiments followed a previously published procedure. Namely, the enzyme activity was measured in the presence of a wide range of quinuclidine compound concentrations and in the substrate range from 0.1 to 0.5 mM to confirm the type of compound binding. The activity was assayed following the Ellman’s procedure, with the modification in the wavelength used for detection of the TNB anion in the case of AChE activity measurement due to the interference of the hemoglobin, and according to Worek et al.. The assay was performed in 96-well plates on an Infinite M200PRO plate reader (Tecan Austria GmbH, Salzburg, Austria) at 25 °C. Each concentration was tested in triplicate or quadruplicate on each plate. The inhibition mixture contained 0.1 M sodium phosphate buffer, pH 7.4, enzyme (AChE or BChE), quinuclidine compound (0.2–400 μM final), DTNB (0.3 mM final), and ATCh (from 0.1 to 0.5 mM final) to start the reaction. The increase in absorbance was read at 436 nm for AChE and at 412 nm for BChE. The measured activity in the presence of compounds was corrected for the non-enzymatic hydrolysis of substrate ATCh, if detected. The reversible enzyme–quinuclidine complex dissociation constants (the inhibition constants) Ki were evaluated from the effect of the substrate concentration on the degree of inhibition according to the Hunter–Downs equation as described previously, taking into account only quinuclidine concentrations where 20–80% inhibition of the activity was observed.

SH-SY5Y cells [1] = assay: Cytotoxicity assay (MTS) on SH-SY5Y; format: cell-based; conditions: Homo sapiens
Protocol: (§3) SH-SY5Y cells were grown in DMEM F12 (Sigma-Aldrich, St. Louis, MO, USA) supplemented with 15% (v/v) fetal bovine serum (FBS), 2 mM glutamine, and 1% (v/v) non-essential amino acids (NEAA). HepG2 cells were grown in EMEM supplemented with 10% (v/v) FBS, 2 mM glutamine, and 1% (v/v) non-essential amino acids NEAA. All media and supplements were purchased from Sigma-Aldrich, Steinheim, Germany.
(§4) The procedure followed a previously described protocol.

HepG2 cells [2] = assay: Cytotoxicity assay (MTS) on HepG2; format: cell-based; conditions: Homo sapiens
Protocol: as §3, §4

human AChE = biological target: T2, human AChE (Homo sapiens, UniProt P22303); assay: Reversible inhibition of AChE (Ellman's procedure, Hunter–Downs evaluation); format: biochemical; conditions: for Ki: Ki ± standard error, 0.1, 0.2, 0.35 and 0.5 mM substrate ATCh, 25 °C, pH 7.4; for Ki (AChE)/Ki (BChE): selectivity ratio
T2 construct: The sources of human AChE and BChE were native erythrocytes and plasma, respectively; from tissue; host or cells: human erythrocytes from venous blood of a healthy volunteer
Source text: as §1, §2

HepG2 cells [3] = assay: Cell membrane integrity (LDH release) on HepG2; format: cell-based, human; conditions: HepG2, 4 h exposure, 12.5–200 µM
Protocol: (§5) Human neuroblastoma SH-SY5Y (ECACC 94030304) and human hepatocyte carcinoma HepG2 (ECACC 85011430) were used to evaluate in vitro dose- and time-dependent different cell effects. The SH-SY5Y cell line was selected as it represents a well-established model for studying neuronal cells, while HepG2 hepatocytes represent a liver model as a major organ participating in the metabolism of diverse compounds [31, 61, 62]. SH-SY5Y cells were grown in DMEM F12 (Sigma-Aldrich, St. Louis, MO, USA) supplemented with 15% (v/v) fetal bovine serum (FBS), 2 mM glutamine, and 1% (v/v) non-essential amino acids (NEAA). HepG2 cells were grown in EMEM supplemented with 10% (v/v) FBS, 2 mM glutamine, and 1% (v/v) non-essential amino acids NEAA. All media and supplements were purchased from Sigma-Aldrich, Steinheim, Germany.
(§6) Cell membrane integrity was determined after 4 h exposure to derivatives 3–5 and 10–12 by measuring the release of the intracellular lactate dehydrogenase (LDH), and the procedure followed a previously described protocol using The CytoTox-ONE™ Homogeneous Membrane Integrity Assay (Promega, Madison, WI, USA). Triton X-100 at a final concentration of 0.18% (v/v) (stock of 9% in water; Sigma-Aldrich, Steinheim, Germany) was used as a positive control to determine the maximal LDH release. Data were taken from at least two independent experiments (each treatment performed in duplicate) and plotted as a percentage of LDH release compared to the determined maximal LDH release, according to the manufacturer’s calculation protocol.

HepG2 cells [4] = assay: Mitochondrial membrane potential (TMRE assay) on HepG2; format: cell-based, human; conditions: HepG2, 4 h exposure, LOAEL concentrations
Protocol: as §5
(§7) Mitochondrial membrane potential (ΔΨm) was determined using a cell-permeable, potential-sensitive cationic dye, tetramethylrhodamine ethyl ester perchlorate (TMRE, Cell Signaling Technology Europe, Leiden, The Netherlands). Cells were exposed for 4 h to derivatives 3–5 and 10–12. The procedure followed a previously described protocol. A concentration of 50 µM carbonyl cyanide 3-chlorophenylhydrazone (CCCP, Cell Signaling Technology Europe, Leiden, The Netherlands) was used as a positive control. Data were evaluated from at least three independent experiments (performed in duplicate) and presented as a normalized signal to the untreated control, according to the manufacturer’s calculation protocol.

SH-SY5Y cells [5] = assay: Cell membrane integrity (LDH release) on SH-SY5Y; format: cell-based, human; conditions: 4 h exposure, 12.5–200 µM
Protocol: as §5, §6

SH-SY5Y cells [6] = assay: Mitochondrial membrane potential (TMRE assay) on SH-SY5Y; format: cell-based, human; conditions: 4 h exposure, LOAEL concentrations
Protocol: as §5, §7

[7] = 4 h exposure, read-out: IC50 ± SE SH-SY5Y 4 h
[8] = 24 h exposure, read-out: IC50 ± SE SH-SY5Y 24 h
[9] = read-out: IC50 ± SE SH-SY5Y 1 h, 1 h exposure
[10] = HepG2, read-out: IC50 ± SE HepG2 1 h, 1 h exposure
[11] = HepG2, 4 h exposure, read-out: IC50 ± SE HepG2 4 h
[12] = HepG2, 24 h exposure, read-out: IC50 ± SE HepG2 24 h

T1 sequence (P06276 29-602): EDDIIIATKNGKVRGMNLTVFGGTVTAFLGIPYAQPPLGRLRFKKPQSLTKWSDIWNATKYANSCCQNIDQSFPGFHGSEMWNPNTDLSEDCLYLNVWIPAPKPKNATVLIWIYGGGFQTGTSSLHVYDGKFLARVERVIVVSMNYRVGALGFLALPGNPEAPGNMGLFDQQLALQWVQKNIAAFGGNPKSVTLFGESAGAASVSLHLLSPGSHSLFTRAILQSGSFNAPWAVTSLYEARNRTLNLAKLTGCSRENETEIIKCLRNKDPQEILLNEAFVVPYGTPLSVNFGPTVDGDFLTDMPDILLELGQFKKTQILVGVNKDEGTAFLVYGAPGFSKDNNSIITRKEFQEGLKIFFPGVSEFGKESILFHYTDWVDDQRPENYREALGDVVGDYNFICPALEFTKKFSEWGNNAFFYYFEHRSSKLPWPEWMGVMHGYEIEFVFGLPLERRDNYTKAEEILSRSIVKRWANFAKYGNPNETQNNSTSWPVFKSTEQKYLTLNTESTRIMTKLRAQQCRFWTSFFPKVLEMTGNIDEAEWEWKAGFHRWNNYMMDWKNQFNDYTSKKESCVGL
T2 sequence (P22303 32-617 isoform P22303-2 limits assumed): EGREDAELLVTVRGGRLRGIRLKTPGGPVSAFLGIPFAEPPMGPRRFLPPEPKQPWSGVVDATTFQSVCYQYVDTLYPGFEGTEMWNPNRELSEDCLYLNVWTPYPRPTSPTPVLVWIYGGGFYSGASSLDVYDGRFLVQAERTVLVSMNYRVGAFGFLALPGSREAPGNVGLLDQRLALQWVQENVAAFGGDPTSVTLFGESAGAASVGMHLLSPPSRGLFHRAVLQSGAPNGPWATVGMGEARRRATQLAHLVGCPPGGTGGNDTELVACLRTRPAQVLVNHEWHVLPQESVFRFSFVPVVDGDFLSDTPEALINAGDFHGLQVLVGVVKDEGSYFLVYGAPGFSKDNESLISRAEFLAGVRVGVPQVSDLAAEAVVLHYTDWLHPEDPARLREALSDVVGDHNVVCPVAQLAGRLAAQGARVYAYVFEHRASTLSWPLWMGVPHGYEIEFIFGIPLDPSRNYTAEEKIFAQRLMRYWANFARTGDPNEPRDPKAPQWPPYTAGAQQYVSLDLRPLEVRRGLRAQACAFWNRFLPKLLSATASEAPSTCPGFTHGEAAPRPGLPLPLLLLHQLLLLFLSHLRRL

Row | SMILES | Ki (human BChE) | IC50 (SH-SY5Y cells [1]; [7]) | IC50 (SH-SY5Y cells [1]; [8]) | IC50 (SH-SY5Y cells [1]; [9]) | IC50 (HepG2 cells [2]; [10]) | IC50 (HepG2 cells [2]; [11]) | IC50 (HepG2 cells [2]; [12]) | Ki (human AChE) | Ki (AChE)/Ki (BChE) (human AChE) | LDH release (HepG2 cells [3]) | Mitochondrial membrane potential (ΔΨm) (HepG2 cells [4]) | LDH release (SH-SY5Y cells [5]) | Mitochondrial membrane potential (ΔΨm) (SH-SY5Y cells [6])
1 | CCCCCCCC[N+]12CCC(CC1)C(O)C2 (stereo not drawn) [Compound 1] | 85.1 ± 22.1 µM | ≥ 800 µM | ≥ 800 µM | ≥ 800 µM | ≥ 800 µM | ≥ 800 µM | ≥ 800 µM | 156 ± 26.1 µM | 1.8 | – | – | – | –
2 | CCCCCCCCCC[N+]12CCC(CC1)C(O)C2 (stereo not drawn) [Compound 2] | 11.8 ± 1.1 µM | ≥ 800 µM | ≥ 800 µM | ≥ 800 µM | ≥ 800 µM | ≥ 800 µM | ≥ 537 µM | 63.8 ± 5.1 µM | 5.4 | – | – | – | –
3 | CCCCCCCCCCCC[N+]12CCC(CC1)C(O)C2 (stereo not drawn) [Compound 3] | 9 ± 0.8 µM | 74 ± 1 µM | 56 ± 1 µM | 145 ± 1 µM | 135 ± 1 µM | 81 ± 1 µM | 66 ± 1 µM | 13.2 ± 0.6 µM | 1.5 | strongest effect; also recorded: significant LDH release | decrease in the mitochondrial membrane potential | significant LDH release | decrease in the mitochondrial membrane potential
4 | CCCCCCCCCCCCCC[N+]12CCC(CC1)C(O)C2 (stereo not drawn) [Compound 4] | 7.9 ± 0.7 µM | 9 ± 1 µM | 7 ± 1 µM | 16 ± 1 µM | 35 ± 1 µM | 32 ± 1 µM | 43 ± 1 µM | 4.2 ± 0.5 µM | 0.5 | strongest effect; also recorded: significant LDH release | decrease in the mitochondrial membrane potential | significant LDH release | decrease in the mitochondrial membrane potential
5 | CCCCCCCCCCCCCCCC[N+]12CCC(CC1)C(O)C2 (stereo not drawn) [Compound 5] | 26.1 ± 2.4 µM | 8 ± 1 µM | 7 ± 1 µM | 11 ± 1 µM | 46 ± 1 µM | 26 ± 1 µM | 28 ± 1 µM | 9 ± 1.3 µM | 0.3 | strongest effect; also recorded: significant LDH release | strongest effect; also recorded: decrease in the mitochondrial membrane potential | significant LDH release | decrease in the mitochondrial membrane potential
